In PubChem BioAssay (NCI):
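Grown in 96-well plates, cells were treated for 48 hours with each compound at five concentrations. Insufficient inhibition: endpoint recorded as highest concentration tested. The concentration for 50% growth inhibition is given as GI50. The concentration for full growth arrest is given as TGI.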

What was measured:
Assay in all cases: DTP human tumour cell line panel, 48 h
MALME-3M melanoma = test system: MALME-3M melanoma
HT29 colon = test system: HT29 colon
BT-549 breast = test system: BT-549 breast
HCT-116 colon = test system: HCT-116 colon
HS 578T breast = test system: HS 578T breast
COLO 205 colon = test system: COLO 205 colon
CCRF-CEM leukemia = test system: CCRF-CEM leukemia
OVCAR-5 ovarian = test system: OVCAR-5 ovarian
HCC-2998 colon = test system: HCC-2998 colon
U251 CNS = test system: U251 CNS
RPMI-8226 leukemia = test system: RPMI-8226 leukemia
SN12C renal = test system: SN12C renal
SK-OV-3 ovarian = test system: SK-OV-3 ovarian
PC-3 prostate = test system: PC-3 prostate
SF-295 CNS = test system: SF-295 CNS
LOX IMVI melanoma = test system: LOX IMVI melanoma
SF-539 CNS = test system: SF-539 CNS
HOP-62 NSCLC = test system: HOP-62 NSCLC
OVCAR-4 ovarian = test system: OVCAR-4 ovarian
CAKI-1 renal = test system: CAKI-1 renal
NCI-H23 lung = test system: NCI-H23 lung
NCI-H460 lung = test system: NCI-H460 lung
OVCAR-8 ovarian = test system: OVCAR-8 ovarian
NCI/ADR-RES ovarian = test system: NCI/ADR-RES ovarian
TK-10 renal = test system: TK-10 renal
UACC-62 melanoma = test system: UACC-62 melanoma
SK-MEL-5 melanoma = test system: SK-MEL-5 melanoma
DU-145 prostate = test system: DU-145 prostate
K-562 leukemia = test system: K-562 leukemia
M14 melanoma = test system: M14 melanoma
NCI-H522 lung = test system: NCI-H522 lung
SK-MEL-28 melanoma = test system: SK-MEL-28 melanoma
SF-268 CNS = test system: SF-268 CNS
OVCAR-3 ovarian = test system: OVCAR-3 ovarian
NCI-H226 lung = test system: NCI-H226 lung
T-47D breast = test system: T-47D breast
RXF 393 renal = test system: RXF 393 renal
SW-620 colon = test system: SW-620 colon
MDA-MB-435 = test system: MDA-MB-435
SK-MEL-2 melanoma = test system: SK-MEL-2 melanoma
UO-31 renal = test system: UO-31 renal
KM12 colon = test system: KM12 colon
SNB-19 CNS = test system: SNB-19 CNS
A549 NSCLC = test system: A549 NSCLC
HCT-15 colon = test system: HCT-15 colon
IGROV1 ovarian = test system: IGROV1 ovarian
EKVX NSCLC = test system: EKVX NSCLC
HL-60(TB) leukemia = test system: HL-60(TB) leukemia
SNB-75 CNS = test system: SNB-75 CNS
MDA-MB-231 breast = test system: MDA-MB-231 breast
ACHN renal = test system: ACHN renal
MOLT-4 leukemia = test system: MOLT-4 leukemia
SR leukemia = test system: SR leukemia
786-0 renal = test system: 786-0 renal
MCF7 breast = test system: MCF7 breast
HOP-92 NSCLC = test system: HOP-92 NSCLC
A498 renal = test system: A498 renal

For `Cn1cc(-c2nonc2-c2cn(C)c3ccc(F)cc23)c2ccccc21`, the GI50 (MALME-3M melanoma) was 540 nM, the TGI (MALME-3M melanoma) was > 100000 nM and the GI50 (HT29 colon) was 346 nM. The TGI (HT29 colon) was > 100000 nM, the GI50 (BT-549 breast) was 923 nM and the TGI (BT-549 breast) was > 100000 nM. The GI50 (HCT-116 colon) was 432 nM, the TGI (HCT-116 colon) was > 100000 nM and the GI50 (HS 578T breast) was 299 nM. For the same molecule, the GI50 (COLO 205 colon) was 856 nM, the TGI (COLO 205 colon) was > 100000 nM and the GI50 (CCRF-CEM leukemia) was 319 nM. For the same molecule, the TGI (CCRF-CEM leukemia) was > 100000 nM, the GI50 (OVCAR-5 ovarian) was 1050 nM and the TGI (OVCAR-5 ovarian) was > 100000 nM. For the same molecule, the GI50 (HCC-2998 colon) was 958 nM, the TGI (HCC-2998 colon) was > 100000 nM and the GI50 (U251 CNS) was 469 nM. The TGI (U251 CNS) was > 100000 nM, the GI50 (RPMI-8226 leukemia) was 463 nM and the TGI (RPMI-8226 leukemia) was > 100000 nM. For the same molecule, the GI50 (SN12C renal) was 724 nM, the TGI (SN12C renal) was > 100000 nM and the GI50 (SK-OV-3 ovarian) was 594 nM. The TGI (SK-OV-3 ovarian) was > 100000 nM, the GI50 (PC-3 prostate) was 427 nM and the TGI (PC-3 prostate) was > 100000 nM. For the same molecule, the GI50 (SF-295 CNS) was 299 nM, the GI50 (LOX IMVI melanoma) was 564 nM and the TGI (LOX IMVI melanoma) was > 100000 nM. It also gave a GI50 (SF-539 CNS) of 291 nM, a TGI (SF-539 CNS) of 1580 nM and a GI50 (HOP-62 NSCLC) of 590 nM. For the same molecule, the TGI (HOP-62 NSCLC) was > 100000 nM, the TGI (OVCAR-4 ovarian) was > 100000 nM and the GI50 (CAKI-1 renal) was 416 nM. For the same molecule, the TGI (CAKI-1 renal) was > 100000 nM, the GI50 (NCI-H23 lung) was 836 nM and the TGI (NCI-H23 lung) was > 100000 nM. The GI50 (NCI-H460 lung) was 390 nM, the TGI (NCI-H460 lung) was > 100000 nM and the GI50 (OVCAR-8 ovarian) was 630 nM. For the same molecule, the TGI (OVCAR-8 ovarian) was > 100000 nM, the GI50 (NCI/ADR-RES ovarian) was 395 nM and the TGI (NCI/ADR-RES ovarian) was > 58300 nM. For the same molecule, the GI50 (TK-10 renal) was > 20400 nM, the TGI (TK-10 renal) was > 100000 nM and the GI50 (UACC-62 melanoma) was 469 nM. For the same molecule, the TGI (UACC-62 melanoma) was > 100000 nM, the GI50 (SK-MEL-5 melanoma) was 502 nM and the TGI (SK-MEL-5 melanoma) was > 100000 nM. The GI50 (DU-145 prostate) was 530 nM, the TGI (DU-145 prostate) was > 100000 nM and the GI50 (K-562 leukemia) was 311 nM. The TGI (K-562 leukemia) was > 100000 nM, the GI50 (M14 melanoma) was 342 nM and the TGI (M14 melanoma) was > 100000 nM. For the same molecule, the GI50 (NCI-H522 lung) was 357 nM, the TGI (NCI-H522 lung) was > 100000 nM and the GI50 (SK-MEL-28 melanoma) was 3500 nM. For the same molecule, the TGI (SK-MEL-28 melanoma) was > 100000 nM, the GI50 (SF-268 CNS) was 1210 nM and the TGI (SF-268 CNS) was > 100000 nM. For the same molecule, the GI50 (OVCAR-3 ovarian) was 340 nM, the GI50 (NCI-H226 lung) was 2560 nM and the TGI (NCI-H226 lung) was > 100000 nM. For the same molecule, the GI50 (T-47D breast) was 809 nM, the TGI (T-47D breast) was > 100000 nM and the GI50 (RXF 393 renal) was 271 nM. For the same molecule, the TGI (RXF 393 renal) was 873 nM, the GI50 (SW-620 colon) was 361 nM and the TGI (SW-620 colon) was > 100000 nM. For the same molecule, the GI50 (MDA-MB-435) was 199 nM, the TGI (MDA-MB-435) was 623 nM and the GI50 (SK-MEL-2 melanoma) was 552 nM. The TGI (SK-MEL-2 melanoma) was > 100000 nM, the GI50 (UO-31 renal) was 438 nM and the TGI (UO-31 renal) was > 100000 nM. For the same molecule, the GI50 (KM12 colon) was 433 nM, the TGI (KM12 colon) was > 100000 nM and the GI50 (SNB-19 CNS) was 555 nM. For the same molecule, the TGI (SNB-19 CNS) was > 100000 nM, the GI50 (A549 NSCLC) was 703 nM and the TGI (A549 NSCLC) was > 100000 nM. The GI50 (HCT-15 colon) was 398 nM, the TGI (HCT-15 colon) was > 100000 nM and the GI50 (IGROV1 ovarian) was 522 nM. For the same molecule, the TGI (IGROV1 ovarian) was > 100000 nM, the GI50 (EKVX NSCLC) was 721 nM and the TGI (EKVX NSCLC) was > 100000 nM. The GI50 (HL-60(TB) leukemia) was 306 nM, the TGI (HL-60(TB) leukemia) was 2300 nM and the GI50 (SNB-75 CNS) was 206 nM. The TGI (SNB-75 CNS) was 702 nM, the GI50 (MDA-MB-231 breast) was 869 nM and the TGI (MDA-MB-231 breast) was > 100000 nM. For the same molecule, the GI50 (ACHN renal) was 595 nM, the TGI (ACHN renal) was > 100000 nM and the GI50 (MOLT-4 leukemia) was 685 nM. For the same molecule, the TGI (MOLT-4 leukemia) was > 100000 nM, the GI50 (SR leukemia) was 269 nM and the TGI (SR leukemia) was > 100000 nM. For the same molecule, the GI50 (786-0 renal) was 614 nM, the TGI (786-0 renal) was > 100000 nM and the GI50 (MCF7 breast) was 366 nM. For the same molecule, the TGI (MCF7 breast) was > 100000 nM, the GI50 (HOP-92 NSCLC) was 439 nM and the TGI (HOP-92 NSCLC) was > 100000 nM. The GI50 (A498 renal) was 273 nM and the TGI (A498 renal) was 976 nM.
